# B1: 7620 (Trypanosoma brucei brucei TREU927) (protein)
# chain: MTSINAQPPNSATYPQDDHGSAEVVNLNAEVERPQPEEQKDGGGCFARVSLFMATIIPPGGIAASAFNIGSTTVGAGIFGLPAAANSSGLVMAMIYLIIITAMTIFSIYALGVAAERTNIRTYEGVARALLGPWGAYYTAATRAFFSFSACVAYVISVGDILSATLKGTNAPDFLKQKSGNRLLTSLMWLCFMLPLVIPRHIDSLRHVSTIAFILMIYMVLVVVVHSCMNGLPENIKNVSVGKDDNAEIILFNSGNRAIEGLGVFIFSYLFQITAYEVYMDMTNRSVGKFVLVVTIAMGMCLPMYALTAFFGYMDFGRNVTGSVLLQYDPVNYPAVMVGFVGVLVMLFVSYALLGLACRNALYDVIGWDFREVAFWKHCIAVVTLSIVMLLCGLFIPKITTVLGFAGSFCGGSLGFILPALFFMYSGGFTWQKVGPFYYISTYVLLITGVIAAVFGTGATIWAVTVG
# Key:
# 7620 = biological target: T1, 7620 (Trypanosoma brucei, UniProt Q57V83); assay type: cell-based; conditions: pH 7.0, 30 °C, excess competitor
# T1 construct: gene Tb08.30P3.140; full-length ORF, untagged, in pDR197; expressed in S. cerevisiae 22574d
# [1] = substrate: O=C(O)[C@@H]1CCCN1; experiment: cells, lysate or membranes; conditions: pH 7.0, 30 °C, 100 mM glucose, labelled compound
Molecule,relative uptake rate (%) 7620,Km [1] [µM]
C[C@H](N)C(=O)O [alanine],"proline being the best substrate, followed by alanine and cysteine",
N[C@@H](CS)C(=O)O [cysteine],"proline being the best substrate, followed by alanine and cysteine",
B1,,600
